In patent US8653026B2, “Treatment of type 2 diabetes with FTY720” (Diapin Therapeutics LLC, priority 2011, dated 2014):

Tests used:
Bcl-2 = Bcl-2 mRNA levels in islets of db/db mice; format: in vivo, mouse; details: islets from FTY720-treated db/db mice vs untreated
Protocol: FIG. 10A. Levels of Bcl-2 mRNA levels of the db/db mice with (+FTY720) or without FTY720 (−FTY720) treatment. *p=0.0006
(§1) Islets were isolated from pancreases removed from the 13-week-old untreated and FTY720-treated db/db mice by Liberase (Roche Diagnostics) digestion, followed by discontinuous Ficoll gradient separation and manual stereomicroscopic selection to exclude contaminating tissues (30). Isolated islets (or INS-1 cells) were cultured in the medium (composed of RPMI 1640 medium supplemented with 10% fetal bovine serum, 2 mM L-glutamine, 1% sodium pyruvate, 50 μM β-mercaptoethanol, 100 units/ml of penicillin, and 100 μg/ml of streptomycin). For treatment of INS-1 cells, the cells were plated in RPMI medium overnight and changed to Hanks' balanced salt solution containing 2 mM glucose and 0.5% FBS overnight. Then the cells were treated with various conditions in the same medium for 24 hours.
To determine the mechanism of action (MOA) behind the increase in beta-cell mass observed in the treated mice, beta-cell survival was examined.

PDX-1 = PDX-1 expression in isolated islets from db/db mice; format: in vivo, mouse; details: islets from FTY720-treated db/db mice
Protocol: FIG. 14. PDX-1 expression in the isolated islets from the db/db mice with (+FTY720) or without FTY720 (−FTY720) treatment (*p=0.0006).
as §1
Expression of pancreatic and duodenal homeobox 1 (PDX-1), a transcription factor, is required for pancreatic development and β-cell maturation.

pancreatic cancer cells = details: concentrations identical to this study (10 mg/kg), reportedly; cited from earlier work
db/db mice = test: Intraperitoneal glucose tolerance test; format: in vivo, mouse; details: db/db mice fasted 16 h, i.p. 10% glucose 1 mg/g; treated vs untreated
Protocol: FIG. 5A. Intraperitoneal glucose tolerance test (GTT). The mice of both groups were fasted for 16 hours and intraperitoneally injected with 10% glucose (1 mg/g body weight). Glucose levels were then measured after 0, 30, 60, 90, 120 min by a Glucometer Elite (Bayer Corp., Elkhart, Ind.). Open circle (∘), FTY720-untreated group; solid circle (●), FTY720-treated group. *p<0.01.
For the glucose tolerance test, the mice were fasted for 16 h and intraperitoneally injected with 10% glucose (1 mg/g of body weight). Glucose levels were then measured after 0, 30, 60, 90, and 120 min by a Glucometer Elite (Bayer Corp., Elkhart, Ind.) (29). For the insulin tolerance test, the mice were fasted for 6 h and injected intraperitoneally with human regular insulin (0.55 units/kg) (Sigma). Tail blood samples were collected at 0, 30, 40, 60, 90, and 120 min for glucose measurement (30, 31).

S1P3 = test: S1P receptor expression in islets from db/db mice: S1P3; format: in vivo, mouse; details: after FTY720 treatment of db/db mice
Text: FIG. 15. Expression of 4 FTY720-bound S1P receptors in the islets isolated from the db/db mice.
FTY720 is phosphorylated in vivo to form FTY720-P that binds S1P1, S1P3, S1P4, and S1P5 but not S1P2 (25). We determined the expression of these receptors in the islets isolated from the untreated and FTY720-treated db/db mice.

## CCCCCCCCc1ccc(CCC(N)(CO)CO)cc1 [FTY720, 2-amino-2-[2-(4-octylphenyl)ethyl]propane-1,3-diol]
Bcl-2
  Bcl-2 mRNA levels: significantly increased
PDX-1
  PDX-1 expression relative to islets from untreated mice: 6 fold
Pancreatic cancer cells
  growth, migration, and invasion of pancreatic cancer cells: inhibit
db/db mice
  glucose tolerance: significantly improved
S1P3
  S1P3 expression in islets: significantly elevated
